Values quoted from earlier work, collected in US6641839B1, “Pharmaceutical formulations for preventing drug tolerance” (Athpharma Limited, priority 1987, dated 2003).

Conditions: nitrate therapy, widely believed critical level

Compound | minimum critical plasma concentration for therapeutic effect
O=[N+]([O-])O[C@H]1CO[C@H]2[C@@H]1OC[C@H]2O [IS-2-MN, isosorbide-2-mononitrate] | approximately 20 ng/ml
O=[N+]([O-])O[C@@H]1CO[C@H]2[C@@H]1OC[C@@H]2O [IS-5-MN, isosorbide-5-mononitrate] | approximately 100 ng/ml
